Reference: US12338206B2, “Compounds and their uses as thyroid hormone receptor agonists” (Nanjing Ruijie Pharma Co., Ltd., priority 2020, dated 2025)

What was measured:
[1] = molecular target: TRα LBD (Homo sapiens, UniProt P10827); assay: In vitro thyroid hormone receptor binding assay (TR-FRET coactivator assay), TRα LBD; conditions: Biotin-SRC2-2, 1 hour at room temperature
Description: (§1) In Vitro Thyroid Hormone Receptor Binding Assay
(§2) The interaction between the compounds of present invention and Human Thyroid Receptor (TR) are evaluated by Time-Resolved Fluorescence Resonance Energy Transfer (TR-FRET) competition assay. FRET describes a radiation-free energy transfer between two chromophores: a donor fluorophore in its excited state can transfer energy to an acceptor fluorophore in close proximity (typically <10 nm). In contrast to standard FRET, TR-FRET unites time-resolved fluorescence (TRF) and the FRET principle. TRF use a long-lifetime lanthanide chelate as the donor species, while lanthanide chelates are unique in that their excited-state lifetime can be on the order of a millisecond or longer. Suitable neighbors for FRET are known in the art and can be obtained. The assay was adopted from the manual of LanthaScreen™ TR-FRET Thyroid Receptor beta Coactivator Assay kit from Invitrogen.
(§3) The assay is performed in following steps: first, prepare reaction buffer containing 50mMTris-HCl (pH7.4) with 100 mM NaCl, 1mMEDTA, 50mMKF, 1mMDTT, 1mMMgCl2, 10% glycerol, 0.01% NP-40, 0.1% BSA. Second, use the buffer to prepare the appropriate dilution series of the test and reference compounds. The3,3′,5-Triiodothyronine (T3) was used aspositive control agonist. Third, add 5 μl of 4× compoundserial dilution and 5 μl TRa LBD (4×, 4 nM) (or 5 μl TRβ LBD, 4×, 2 nM) into 384-well plate (784075, greiner). Then, add 10 μl of a solution consist of 400 nM Biotin-SRC2-2 (2×) and anti-GST Eu (1:200, 2×) and 50 nM anti-biotin-d2 (2×) in 1× reaction buffer to initiate the reaction. Centrifuge the plates at 1000 g for 1 min and then incubate 1 hour at room temperature protected from light. Finally, read the plate at wavelengths of 665 nm and 615nmonEnvision2104 plate reader.
(§4) A ratio (Ratio665 nm/615 nm−Ratiobackground) is calculated for each well. Percentage of activity, as well as EC50 was calculated. Effect-dose curve was plotted. Relative selectivity was calculated as the ratio of EC50TRα/EC50TRβ.

[2] = molecular target: T1, TRβ LBD (Homo sapiens, UniProt P10828); assay: In vitro thyroid hormone receptor binding assay (TR-FRET coactivator assay), TRβ LBD; conditions: for EC50: TR-FRET, TRβ LBD, Biotin-SRC2-2, 1 hour at room temperature; for Relative Selectivity TR-α/TR-β: ratio of EC50 TRα/EC50 TRβ, TR-FRET assay
T1 construct: (or 5 μl TRβ LBD, 4×, 2 nM)
T1 sequence (P10828 217-461 limits assumed): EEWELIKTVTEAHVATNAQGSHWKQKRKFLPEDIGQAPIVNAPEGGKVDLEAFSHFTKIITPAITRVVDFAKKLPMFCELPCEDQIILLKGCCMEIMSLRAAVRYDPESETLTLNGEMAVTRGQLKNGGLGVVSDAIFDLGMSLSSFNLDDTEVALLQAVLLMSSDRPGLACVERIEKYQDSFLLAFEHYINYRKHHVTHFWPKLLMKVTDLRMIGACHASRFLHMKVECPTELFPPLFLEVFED
Description: as §1, §2, §3, §4

TRα LBD, sequence (P10827 163-410 isoform P10827-2 limits assumed, other chains not shown): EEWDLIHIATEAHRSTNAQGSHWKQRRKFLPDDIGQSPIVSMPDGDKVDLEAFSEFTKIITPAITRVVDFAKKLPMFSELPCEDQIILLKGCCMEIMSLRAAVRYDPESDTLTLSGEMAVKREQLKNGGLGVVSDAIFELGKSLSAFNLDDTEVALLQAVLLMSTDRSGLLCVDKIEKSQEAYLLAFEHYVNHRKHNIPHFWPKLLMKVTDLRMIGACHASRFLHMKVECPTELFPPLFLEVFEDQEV

| SMILES | EC50 [1] [nM] | EC50 [2] [nM] | Relative Selectivity TR-α/TR-β [2] |
| --- | --- | --- | --- |
| Cc1cc(OCC(=O)NS(C)(=O)=O)cc(C)c1Cc1ccc(O)c(C(C)C)c1 [Compound I1, 2-(4-(4-hydroxy-3-isopropylbenzyl)-3,5-dimethylphenoxy)-N-(methylsulfonyl)acetamide] | 6.77 | 17.3 | 0.3915 |
| Cc1cc(OCc2cc(O)no2)cc(C)c1Cc1ccc(O)c(C(C)C)c1 [Compound I2, 5-((4-(4-hydroxy-3-isopropylbenzyl)-3,5-dimethylphenoxy)methyl) isoxazol-3-ol] | 7.37 | 16.2 | 0.4560 |
| CC(C)c1cc(Oc2ccc(-n3nc(C#N)c(=O)[nH]c3=O)cc2Cl)cnc1O [Compound I5, 2-(3-chloro-4-((5-isopropyl-6-oxo-1,6-dihydropyridin-3-yl)oxy)phenyl)-3,5-dioxo-2,3,4,5-tetrahydro-1,2,4-triazine-6-carbonitrile] | > 10000 | > 10000 | – |
| Cc1cc(-n2nc(C#N)c(=O)[nH]c2=O)cc(C)c1Oc1cnc(O)c(C(C)C)c1 [Compound I6, 2-(4-((5-isopropyl-6-oxo-1,6-dihydropyridin-3-yl)oxy)-3,5-dimethylphenyl)-3,5-dioxo-2,3,4,5-tetrahydro-1,2,4-triazine-6-carbonitrile] | > 10000 | 1980 | >5.05 |
| CC(C)c1cc(Oc2c(F)cc(-n3nc(C#N)c(=O)[nH]c3=O)cc2F)c[nH]c1=O [Compound I7, 2-(3,5-difluoro-4-((5-isopropyl-6-oxo-1,6-dihydropyridin-3-yl)oxy)phenyl)-3,5-dioxo-2,3,4,5-tetrahydro-1,2,4-triazine-6-carbonitrile] | > 10000 | > 10000 | – |
| Cc1c[nH]c2ncc(Oc3c(Cl)cc(-n4nc(C#N)c(=O)[nH]c4=O)cc3Cl)cc12 [Compound I8, 2-(3,5-dichloro-4-((3-methyl-1H-pyrrolo[2,3-b]pyridin-5-yl)oxy)phenyl)-3,5-dioxo-2,3,4,5-tetrahydro-1,2,4-triazine-6-carbonitrile] | > 10000 | 2890 | >3.46 |
| N#Cc1nn(-c2cc(Cl)c(Oc3cnc4[nH]ccc4c3)c(Cl)c2)c(=O)[nH]c1=O [Compound I9, 2-(4-((1H-pyrrolo[2,3-b]pyridin-5-yl)oxy)-3,5-dichlorophenyl)-3,5-dioxo-2,3,4,5-tetrahydr o-1,2,4-triazine-6-carbonitrile] | > 10000 | > 10000 | – |
| N#Cc1nn(-c2cc(Cl)c(Oc3cnc(O)c(C4CC4)c3)c(Cl)c2)c(=O)[nH]c1=O [Compound I11, 2-(3,5-dichloro-4-((5-cyclopropyl-6-oxo-1,6-dihydropyridin-3-yl)oxy)phenyl)-3,5-dioxo-2,3,4,5-tetrahydro-1,2,4-triazine-6-carbonitrile] | > 10000 | 754 | – |
| N#Cc1nn(-c2cc(Cl)c(Oc3ccc4[nH]cnc4c3)c(Cl)c2)c(=O)[nH]c1=O [Compound I13, 2-(4-((1H-benzo[d]imidazol-5-yl)oxy)-3,5-dichlorophenyl)-3,5-dioxo-2,3,4,5-tetrahydro-1,2,4-triazine-6-carbonitrile] | 12200 | 2610 | 4.67 |
| Cn1c(=O)[nH]c2ccc(Oc3c(Cl)cc(-n4nc(C#N)c(=O)[nH]c4=O)cc3Cl)cc21 [Compound I14, 2-(3,5-dichloro-4-((3-methyl-2-oxo-2,3-dihydro-1H-benzo[d]imidazol-5-yl)oxy)phenyl)-3,5-dioxo-2,3,4,5-tetrahydro-1,2,4-triazine-6-carbonitrile] | 172 | 46 | 3.70 |
| N#Cc1nn(-c2cc(Cl)c(Oc3ccc4[nH]c(=O)[nH]c4c3)c(Cl)c2)c(=O)[nH]c1=O [Compound I15, 2-(3,5-dichloro-4-((2-oxo-2,3-dihydro-1H-benzo[d]imidazol-5-yl)oxy)phenyl)-3,5-dioxo-2,3,4,5-tetrahydro-1,2,4-triazine-6-carbonitrile] | 1790 | 854 | 2.09 |
